For assay [1], the system named is phosphorylated AKT Ser473 (pAKT S473), mTORC2 activity, PC3 cells. The assay is described as follows: mTOR target engagement assay, immunofluorescent cell-based, pAKT S473 readout (mTORC2 activity). The settings on record: Homo sapiens. In outline: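 After blocking, cells were stained overnight at 4 °C with anti-pAKT S473 antibody, then a fluorescent secondary; inhibition was read as reduced fluorescence intensity.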

Assay [2] has as its system phosphorylated 4E-BP1 Thr37/46 (p4E-BP1 Thr37/46), mTORC1 activity, PC3 cells. The assay is described as follows: mTOR target engagement assay, immunofluorescent cell-based, p4E-BP1 Thr37/46 readout (mTORC1 activity). The settings on record: Homo sapiens, read-out: p4E-BP1 Thr37/46 IC50. Summed up: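 Seed PC3 cells overnight; treat with compound dilutions for ninety minutes at 37° C; fix with glyoxal and block; stain with anti-p4E-BP1 Thr37/46 overnight at 4° C, then fluorescent secondary; read fluorescence and fit IC50 against DMSO-only controls.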

[3] abbreviates: PC-3, PC3 cells, compound treatment ninety minutes at 37° C.

Where two headings read alike, the source gives them in different places. A value given as a limit tells only on which side of the number the result lay.

Regarding `CS(=O)(=O)c1c([C@@H]2C[C@H]3CC[C@@H](C2)N3C(=O)CO)nc2c(-c3ccc(C4(O)CCCC4)nc3)cnn2c1N` [Compound 7.47, 1-((1R,3s,5S)-3-(7-amino-3-(6-(1-hydroxycyclopentyl)pyridin-3-yl)-6-(methylsulfonyl)pyrazolo [1,5-a]pyrimidin-5-yl)-8-azabicyclo[3.2.1]octan-8-yl)-2-hydroxyethanone], the IC50 in assay [1] (PC-3, Table 7-8, PC3 cells) was 100 to 1000 nM; in assay [2] (PC-3, Table 7-8, PC3 cells), 100 to 1000 nM.

As for `COCCOCc1ccc(-c2cnn3c(N)c(C(C)=O)c([C@@H]4C[C@H]5CC[C@@H](C4)N5C(=O)c4nnc[nH]4)nc23)cn1` [Compound 7.31, 1-(5-((1R,3s,5S)-8-(4H-1,2,4-triazole-3-carbonyl)-8-azabicyclo[3.2.1]octan-3-yl)-7-amino-3-(6-((2-methoxyethoxy)methyl)pyridin-3-yl)pyrazolo[1,5-a]pyrimidin-6-yl)ethanone], the IC50 in assay [1] (setting [3]) and in assay [2] (setting [3]) was 1000 to 10000 nM in each case.

`CS(=O)(=O)c1c([C@@H]2C[C@H]3CC[C@@H](C2)N3C(N)=O)nc2c(-c3ccc(-c4ccccc4F)nc3)cnn2c1N` [Compound 3.131, (1R,3s,5S)-3-(7-amino-3-(6-(2-fluorophenyl)pyridin-3-yl)-6-(methylsulfonyl)pyrazolo[1,5-a]pyrimidin-5-yl)-8-azabicyclo[3.2.1]octane-8-carboxamide]: the IC50 in assay [1] (PC-3, Table 3-1, PC3 cells) fell in the range of 1 to 100 nM; in assay [2] (PC-3, Table 3-1, PC3 cells) it was 1 to 100 nM.

`CC(=O)c1c([C@@H]2C[C@H]3CC[C@@H](C2)N3C(=O)CO)nc2c(-c3ccc(-c4ccc(F)cc4F)nc3)cnn2c1N` [Compound 1.1.164, 1-((1R,3s,5S)-3-(6-acetyl-7-amino-3-(6-(2,4-difluorophenyl)pyridin-3-yl)pyrazolo[1,5-a]pyrimidin-5-yl)-8-azabicyclo[3.2.1]octan-8-yl)-2-hydroxyethanone]: the IC50 lay within 1 to 100 nM in assay [1] (setting [3]) and 100 to 1000 nM in assay [2] (setting [3]).

Take `COCCNC(=O)N1[C@@H]2CC[C@H]1C[C@H](c1nc3c(-c4ccc(-c5ccccc5)nc4)cnn3c(N)c1C1CC1)C2` [Compound 4.7, (1R,3s,5S)-3-(7-amino-6-cyclopropyl-3-(6-phenylpyridin-3-yl)pyrazolo[1,5-a]pyrimidin-5-yl)-N-(2-methoxyethyl)-8-azabicyclo[3.2.1]octane-8-carboxamide]: the IC50 in assay [1] (setting [3]) and in assay [2] (setting [3]) was 100 to 1000 nM throughout.

On to `CC(=O)c1c([C@@H]2C[C@H]3CC[C@@H](C2)N3C(=O)c2nc[nH]n2)nc2c(-c3ccc(-c4ncc(C(F)F)s4)nc3)cnn2c1N` [Compound 1.1.26, 1-(5-((1R,3s,5S)-8-(1H-1,2,4-triazole-3-carbonyl)-8-azabicyclo[3.2.1]octan-3-yl)-7-amino-3-(6-(5-(difluoromethyl)thiazol-2-yl)pyridin-3-yl)pyrazolo[1,5-a]pyrimidin-6-yl)ethanone], for which the IC50 in assay [1] (setting [3]) and in assay [2] (setting [3]) was 100 to 1000 nM each time.

For the compound `CC(C)(O)c1ncc(-c2cnn3c(N)c(S(C)(=O)=O)c([C@@H]4C[C@H]5CC[C@@H](C4)N5C(=O)c4nnc[nH]4)nc23)cn1` [Compound 3.152, ((1R,3s,5S)-3-(7-amino-3-(2-(2-hydroxypropan-2-yl)pyimidin-5-yl)-6-(methylsulfonyl)pyrazolo[1,5-a]pyrimidin-5-yl)-8-azabicyclo[3.2.1]octan-8-yl)(4H-1,2,4-triazol-3-yl)methanone], the IC50 in assay [1] (PC-3, Table 3-1, PC3 cells) is 1000 to 10000 nM; in assay [2] (PC-3, Table 3-1, PC3 cells) it was 1000 to 10000 nM.

As for `CCc1c([C@@H]2C[C@H]3CC[C@@H](C2)N3C(=O)CO)nc2c(-c3ccc(-c4ncc[nH]4)nc3)cnn2c1N` [Compound 6.5, 1-((1R,3s,5S)-3-(3-(6-(1H-imidazol-2-yl)pyridin-3-yl)-7-amino-6-ethylpyrazolo[1,5-a]pyrimidin-5-yl)-8-azabicyclo[3.2.1]octan-8-yl)-2-hydroxyethanone], the IC50 in assay [1] (PC-3, Table 6-1, PC3 cells) lay in the range of 1 to 100 nM; in assay [2] (PC-3, Table 6-1, PC3 cells), 1 to 100 nM.

Turning to `CNc1c(S(C)(=O)=O)c([C@@H]2C[C@H]3CC[C@@H](C2)N3C(=O)c2nnc[nH]2)nc2c(-c3ccc(-c4ccccc4)nc3)cnn12` [Compound 8.41, ((1R,3s,5S)-3-(7-(methylamino)-6-(methylsulfonyl)-3-(6-phenylpyridin-3-yl)pyrazolo[1,5-a]pyrimidin-5-yl)-8-azabicyclo[3.2.1]octan-8-yl)(4H-1,2,4-triazol-3-yl)methanone], the IC50 was 1 to 100 nM in assay [1] (PC-3, PC3 cells) and 100 to 1000 nM in assay [2] (PC-3, PC3 cells).

As to `[2H]C([2H])([2H])n1ccc(-c2ccc(-c3cnn4c(N)c(C(C)=O)c([C@@H]5C[C@H]6CC[C@@H](C5)N6C(=O)c5nnc[nH]5)nc34)cn2)n1` [Compound 1.1.82, 1-(5-((1R,3s,5S)-8-(4H-1,2,4-triazole-3-carbonyl)-8-azabicyclo[3.2.1]octan-3-yl)-7-amino-3-(6-(1-methyl-(D3)-1H-pyrazol-3-yl)pyridin-3-yl)pyrazolo[1,5-a]pyrimidin-6-yl)ethanone], the IC50 in assay [1] (setting [3]) and in assay [2] (setting [3]) was 100 to 1000 nM in each case.

`CC(=O)c1c([C@@H]2C[C@H]3CC[C@@H](C2)N3C(=O)CO)nc2c(-c3ccc(-c4c(F)cccc4F)nc3)cnn2c1N` [Compound 1.1.171, 1-((1R,3s,5S)-3-(6-acetyl-7-amino-3-(6-(2,6-difluorophenyl)pyridin-3-yl)pyrazolo[1,5-a]pyrimidin-5-yl)-8-azabicyclo[3.2.1]octan-8-yl)-2-hydroxyethanone]: the IC50 in assay [1] (setting [3]) and in assay [2] (setting [3]) was 1 to 100 nM throughout.

Turning to `CS(=O)(=O)c1c([C@@H]2C[C@H]3CC[C@@H](C2)N3C(=O)c2ncc[nH]2)nc2c(-c3ccc(-c4ccccc4)nc3)cnn2c1N` [Compound 3.78, ((1R,3s,5S)-3-(7-amino-6-(methylsulfonyl)-3-(6-phenylpyridin-3-yl)pyrazolo[1,5-a]pyrimidin-5-yl)-8-azabicyclo[3.2.1]octan-8-yl)(1H-imidazol-2-yl)methanone], the IC50 in assay [1] (PC-3, Table 3-1, PC3 cells) is 100 to 1000 nM; in assay [2] (PC-3, Table 3-1, PC3 cells), 100 to 1000 nM.

As to `CC(=O)c1c([C@@H]2C[C@H]3CC[C@@H](C2)N3S(=O)(=O)O)nc2c(-c3ccc(-c4ccccc4)nc3)cnn2c1N` [Compound 1.1.49, (1R,3s,5S)-3-(6-acetyl-7-amino-3-(6-phenylpyridin-3-yl)pyrazolo[1,5-a]pyrimidin-5-yl)-8-azabicyclo[3.2.1]octane-8-sulfonic acid], the IC50 was 1000 to 10000 nM in assay [1] (setting [3]) and above 10000 nM in assay [2] (setting [3]).

For `CC(=O)c1c([C@@H]2C[C@H]3CC[C@@H](C2)N3C(=O)c2nnc(N)[nH]2)nc2c(-c3ccc(-c4ncc[nH]4)nc3)cnn2c1N` [Compound 6.20, 1-(3-(6-(1H-imidazol-2-yl)pyridin-3-yl)-7-amino-5-((1R,3s,5S)-8-(5-amino-4H-1,2,4-triazole-3-carbonyl)-8-azabicyclo[3.2.1]octan-3-yl)pyrazolo[1,5-a]pyrimidin-6-yl)ethanone], the IC50 in assay [1] (PC-3, Table 6-1, PC3 cells) was 1 to 100 nM; in assay [2] (PC-3, Table 6-1, PC3 cells), 1 to 100 nM.

On to `CS(=O)(=O)c1c([C@]2(O)C[C@H]3CC[C@@H](C2)N3C(=O)c2nnc[nH]2)nc2c(-c3ccc(-c4ccccc4)nc3)cnn2c1N` [Compound 8.22, ((1R,3r,5S)-3-(7-amino-6-(methylsulfonyl)-3-(6-phenylpyridin-3-yl)pyrazolo[1,5-a]pyrimidin-5-yl)-3-hydroxy-8-azabicyclo[3.2.1]octan-8-yl)(4H-1,2,4-triazol-3-yl)methanone], for which the IC50 in assay [1] (PC-3, PC3 cells) lay within 100 to 1000 nM; in assay [2] (PC-3, PC3 cells), 1000 to 10000 nM.

For the compound `Cc1n[nH]c(CC(=O)N2[C@@H]3CC[C@H]2C[C@H](c2nc4c(-c5ccc(-c6ccccc6)nc5)cnn4c(N)c2S(C)(=O)=O)C3)n1` [Compound 3.82, 1-((1R,3s,5S)-3-(7-amino-6-(methylsulfonyl)-3-(6-phenylpyridin-3-yl)pyrazolo[1,5-a]pyrimidin-5-yl)-8-azabicyclo[3.2.1]octan-8-yl)-2-(3-methyl-1H-1,2,4-triazol-5-yl)ethanone], the IC50 in assay [1] (PC-3, Table 3-1, PC3 cells) lay in the range of 100 to 1000 nM; in assay [2] (PC-3, Table 3-1, PC3 cells), 100 to 1000 nM.

For the compound `CC(=O)c1c([C@@H]2C[C@H]3CC[C@@H](C2)N3C(=O)c2cn[nH]c2N)nc2c(-c3ccc(C(C)(C)O)nc3)cnn2c1N` [Compound 7.15, 1-(7-amino-5-((1R,3s,5S)-8-(5-amino-1H-pyrazole-4-carbonyl)-8-azabicyclo[3.2.1]octan-3-yl)-3-(6-(2-hydroxypropan-2-yl)pyridin-3-yl)pyrazolo[1,5-a]pyrimidin-6-yl)ethanone], the IC50 in assay [1] (setting [3]) and in assay [2] (setting [3]) was 100 to 1000 nM throughout.

For the compound `CC(=O)C(=O)N1[C@@H]2CC[C@H]1C[C@H](c1nc3c(-c4ccc(-c5ccccc5)nc4)cnn3c(N)c1C(C)=O)C2` [Compound 1.1.117, 1-((1R,3s,5S)-3-(6-acetyl-7-amino-3-(6-phenylpyridin-3-yl)pyrazolo[1,5-a]pyrimidin-5-yl)-8-azabicyclo[3.2.1]octan-8-yl)propane-1,2-dione], the IC50 in assay [1] (setting [3]) and in assay [2] (setting [3]) was 100 to 1000 nM each time.

Take `Cc1csc(-c2ccc(-c3cnn4c(N)c(S(C)(=O)=O)c([C@@H]5C[C@H]6CC[C@@H](C5)N6C(=O)c5nnc(C)[nH]5)nc34)cn2)n1` [Compound 3.191, ((1R,3s,5S)-3-(7-amino-6-(methylsulfonyl)-3-(6-(4-methylthiazol-2-yl)pyridin-3-yl)pyrazolo[1,5-a]pyrimidin-5-yl)-8-azabicyclo[3.2.1]octan-8-yl)(5-methyl-4H-1,2,4-triazol-3-yl)methanone]: the IC50 in assay [1] (PC-3, Table 3-1, PC3 cells) was 100 to 1000 nM; in assay [2] (PC-3, Table 3-1, PC3 cells), 100 to 1000 nM.

The values above are taken from patent US9227971B2, “Pyrazolo[1,5-a]pyrimidine compounds as mTOR inhibitors” (Merck Sharp & Dohme Corp., priority 2010, dated 2016).
